Measurements from patent US8802856B2, “Quaternary ammonium diphenylmethyl compounds useful as muscarinic receptor antagonists” (Theravance Biopharma R&D IP, LLC, priority 2007, dated 2014).
pKi: −log10 of the molar value. Values belong to the molecule of their own block, whether it stands above or below them.

Assays:
[1] = target: T1, hM3 muscarinic receptor subtype (Homo sapiens, UniProt P20309); assay: Radioligand binding assay on muscarinic receptor subtypes ([3H]-NMS displacement)
T1 construct: expressed in transfected cells; crude membranes prepared in house
T1 sequence (P20309 whole entry): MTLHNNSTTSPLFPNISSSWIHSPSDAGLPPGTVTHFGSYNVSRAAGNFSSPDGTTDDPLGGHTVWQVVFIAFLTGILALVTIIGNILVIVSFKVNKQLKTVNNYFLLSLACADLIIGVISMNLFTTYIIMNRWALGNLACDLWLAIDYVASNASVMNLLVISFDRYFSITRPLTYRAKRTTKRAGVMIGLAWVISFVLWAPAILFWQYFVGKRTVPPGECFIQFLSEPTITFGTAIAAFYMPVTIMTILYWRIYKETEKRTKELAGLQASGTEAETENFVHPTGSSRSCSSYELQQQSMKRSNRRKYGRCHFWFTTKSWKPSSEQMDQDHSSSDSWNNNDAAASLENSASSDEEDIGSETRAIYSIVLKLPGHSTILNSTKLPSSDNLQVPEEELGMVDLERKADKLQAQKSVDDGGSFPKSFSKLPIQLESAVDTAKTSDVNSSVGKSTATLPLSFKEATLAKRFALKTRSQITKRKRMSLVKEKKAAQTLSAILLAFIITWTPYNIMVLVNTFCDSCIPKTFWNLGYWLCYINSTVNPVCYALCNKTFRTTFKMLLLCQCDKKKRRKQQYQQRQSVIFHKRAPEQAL
Protocol: CHO cell lines stably expressing cloned human hM1, hM2, hM3 and hM4 muscarinic receptor subtypes, respectively, were grown to near confluency in medium consisting of HAM's F-12 supplemented with 10% FBS and 250 μg/mL Geneticin. The cells were grown in a 5% CO2, 37° C. incubator and lifted with 2 mM EDTA in dPBS. Cells were collected by 5 minute centrifugation at 650×g, and cell pellets were either stored frozen at −80° C. or membranes were prepared immediately. For membrane preparation, cell pellets were resuspended in lysis buffer and homogenized with a Polytron PT-2100 tissue disrupter (Kinematica AG; 20 seconds×2 bursts). Crude membranes were centrifuged at 40,000×g for 15 minutes at 4° C. […] The protein concentration of the membrane suspension was determined by the method described in Lowry, O. et al., Journal of Biochemistry 193:265 (1951). […]
Radioligand binding assays were performed in 96-well microtiter plates in a total assay volume of […]. […] Filter plates were rinsed three times with wash buffer (10 mM HEPES) to remove unbound radioactivity. […] The plates were then counted in a PerkinElmer Topcount liquid scintillation counter (PerkinElmer Inc., Wellesley, Mass.). Binding data were analyzed by nonlinear regression analysis with the GraphPad Prism Software package (GraphPad Software, Inc., San Diego, Calif.) using the one-site competition model. […]

MCh response = assay: Rat Einthoven assay (bronchoprotection); type: in vivo; conditions: inhalation; for ID50 (bronchoprotection): 1.5 hrs post-dose
Protocol: All test compounds are diluted in sterile water and are dosed via the inhalation route (IH). The rats (Sprague-Dawley, male, 250-350 g) are exposed to the aerosol generated from an LC Star Nebulizer Set and driven by a mixture of gases (5% CO2/95% atmospheric air). Each test compound solution is nebulized over a 10 minute time period in a pie shaped dosing chamber capable of holding six rats. At predetermined time points after inhalation of compound, the Einthoven assay is performed.
Thirty minutes prior to the start of pulmonary evaluation, the animals are anesthetized with inactin (thiobutabarbital, 120 mg/kg IP). The jugular vein is catheterized with saline filled polyethylene catheters (PE-50) and used to infuse MCh. The trachea is then dissected and cannulated with a 14G needle and used for rat ventilation during pulmonary evaluation. Once surgery is complete, rats are ventilated using a piston respirator set at a stroke volume of 1 ml/100 g body weight but not exceeding 2.5 ml volume, and at a rate of 90 strokes per minute.
The changes in pressure that occur with each breath are measured. Baseline values are collected for at least 2.5 minutes then rats are challenged non-cumulatively with 2-fold incremental increases of the bronchoconstrictor MCh (5, 10, 20, 40 and 80 μg/ml). The MCh is infused for 2.5 minutes from a syringe pump at a rate of 2 mL/kg/min. The animals are euthanized upon completion of the studies.
Changes in ventilation pressure (cm H2O) in treated animals are expressed as % inhibition of MCh response relative to control animals.
Standard muscarinic antagonists were evaluated in the rat Einthoven assay 1.5 hrs post-dose.
Standards tiotropium and ipratropium were also evaluated 24 hr and/or 6 hr post-dose in the rat Einthoven assay. […] The observed loss of activity at this time point (6 hr) is consistent with its relatively short duration of action in the clinic.

[2] = test system: pilocarpine-induced salivation; assay: Rat antisialagogue assay; type: in vivo; conditions: evaluated at 1, 6, and 24 hr post-dose
Protocol: Rats (Sprague-Dawley, male, 250-350 g) are dosed, anesthetized and cannulated as described for Assay 3. At predetermined time points and after surgery, animals are placed on their dorsal side at a 200 incline with their head in a downward slope. A pre-weighed gauze pad is inserted in the animal's mouth and the muscarinic agonist pilocarpine (PILO) (3 mg/kg, iv.) is administered. Saliva produced during 10 minutes post-PILO is measured gravimetrically by determining the weight of the gauze pad before and after PILO. Antisialagogue effects are expressed as % inhibition of salivation relative to control animals.
The rat antisialagogue assay was developed to assess systemic exposure and calculate the lung selectivity index (LSI) of test compounds. The standard, tiotropium, was evaluated in this model at 1, 6, and 24 hr post-dose. […] This finding is consistent with the peak effects observed in the Einthoven assay.
This model is a modified version of the procedure described in Rechter, “Estimation of anticholinergic drug effects in mice by antagonism against pilocarpine-induced salivation” Ata Pharmacol Toxicol 24:243-254 (1996). The mean weight of saliva in vehicle-treated animals, at each pre-treatment time, is calculated and used to compute % inhibition of salivation, at the corresponding pre-treatment time, at each dose.

pKi [1]: > 9.30
SMILES: C[N+]1(CCCSc2ccccc2)CC[C@@H](C(C(N)=O)(c2ccccc2)c2ccccc2)C1 (stereo partly drawn) [Example 2, (S)-3-(Carbamoyldiphenylmethyl)-1-methyl-1-(3-phenylsulfanylpropyl)pyrrolidinium]

SMILES: C[N+]1(C)CCC(OC(=O)C(O)(c2ccccc2)C2CCCC2)C1 (stereo not shown) [glycopyrrolate]
ID50 (bronchoprotection) (MCh response): 15 µg/mL

SMILES: C[N+]1(C)[C@@H]2C[C@@H](OC(=O)C(O)(c3cccs3)c3cccs3)C[C@H]1[C@@H]1O[C@@H]12 [tiotropium]
6 hr versus 24 hr potency values (MCh response): not significantly different
fold more potent at 6 hr and 24 hr compared to 1.5 hr potency (MCh response): about 2 fold
onset of effect (MCh response): slow onset of effect
time of peak bronchoprotection post-dose (MCh response): 6 h
ID50 (bronchoprotection) (MCh response): 6 µg/mL
time post dose at which most potent at inhibiting pilocarpine-induced salivation [2]: 6 h

SMILES: CC(C)[N+]1(C)[C@@H]2CC[C@H]1C[C@@H](OC(=O)C(CO)c1ccccc1)C2 (stereo partly shown) [ipratropium]
fold less potent 6-hr post-dose compared to 1.5 hr potency (MCh response; 10 and 30 μg/ml): about 3 fold
ID50 (bronchoprotection) (MCh response): 4.4 µg/mL
